Read-outs that look alike come from different tables or passages of the source.
Experiments:
SMN protein [1] = assay: SMN protein (HTRF) in brain and quadriceps muscle of C/C-allele mice; type: in vivo
Description: (§1) FIG. 1A-FIG. 1D: Increase in SMN Protein Expression In Vivo • HET=heterogygous. • C/C-allele mice and SMNΔ7 mice were treated with RO7034067. One hour after the last dose, brains and quadriceps muscles were collected and levels of SMN protein were assessed by HTRF. FIG. 1A. SMN protein in brains of C/C-allele mice. FIG. 1B. SMN protein in brains of SMNΔ7 mice. FIG. 1C. SMN protein in quadriceps muscle of C/C-allele mice. FIG. 1D. SMN protein in quadriceps muscle of SMNΔ7 mice. Data represent means±SEM of 5-6 animals per group and are expressed as fold change vs. vehicle-treated controls. *=p<0.05, **=p<0.01, ***=p<0.001 vs. untreated controls.
(§2) Adult C/C-allele mice were treated for 10 days with vehicle or RO7034067 (1, 3 or 10 mg/kg per os [PO], daily), and PND3 SMNΔ7 mice were treated for 7 days with vehicle or RO7034067 (0.1, 0.3, 1 or 3 mg/kg intraperitoneal [IP], daily). […] In SMNΔ7 mice, the SMN protein increase was only partial in both brain and muscle, reaching approximately 43% (brain) and 55% (muscle) of protein levels in heterozygous mice.

FMO3 = biological target: T1, FMO3 (Homo sapiens, UniProt P31513); assay: Elimination pathway; type: in vitro ADME
T1 sequence (P31513 1-532): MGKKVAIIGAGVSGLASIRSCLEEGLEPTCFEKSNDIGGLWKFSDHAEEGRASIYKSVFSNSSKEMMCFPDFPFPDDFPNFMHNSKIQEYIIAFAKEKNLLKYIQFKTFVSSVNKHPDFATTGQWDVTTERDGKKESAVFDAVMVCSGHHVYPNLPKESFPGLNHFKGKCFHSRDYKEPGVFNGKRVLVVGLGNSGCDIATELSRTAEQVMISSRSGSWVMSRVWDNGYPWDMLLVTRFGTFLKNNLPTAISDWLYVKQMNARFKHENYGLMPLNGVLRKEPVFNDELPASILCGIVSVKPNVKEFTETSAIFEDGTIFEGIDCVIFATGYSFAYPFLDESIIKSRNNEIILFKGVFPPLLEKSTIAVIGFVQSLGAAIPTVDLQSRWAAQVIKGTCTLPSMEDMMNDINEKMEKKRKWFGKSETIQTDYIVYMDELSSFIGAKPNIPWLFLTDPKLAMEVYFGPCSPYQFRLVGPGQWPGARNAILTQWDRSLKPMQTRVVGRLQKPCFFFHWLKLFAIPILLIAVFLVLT

MADD gene transcripts = assay: 2-week dose-range finding toxicity study in rat: MADD splicing in spleen, duodenum, testis; type: in vivo; details: rats treated 2 weeks, highest dose of 7.5 mg/kg/day
Description: Gene expression analysis was performed in spleen, duodenum, and testis in rats treated for 2 weeks (MADD gene). […] The changes in splicing of MADD transcripts are consistent with the observations of apoptosis in the GI tract observed at the same dose since MADD gene products have been reported to interfere with the apoptosis processes.

Aqueous solubility = type: physicochemical
retina = details: monkey, in vivo
Text: Over the in-life duration of the 39-week monkey toxicity study with RO7034067, the low dose remained free of any test-item related changes in sdOCT and ERG until the last week of assessment (week 35).

SMN protein [2] = assay: SMN protein (HTRF) in brain and quadriceps muscle of SMNΔ7 mice; type: in vivo
Description: as §1, §2

[3] = 39-week monkey toxicity study: toxicokinetics in plasma; type: in vivo, cynomolgus monkeys (Macaca fascicularis); details: for AUC(0-t) / Cmax: cynomolgus monkey, plasma
Description: Blood samples for toxicokinetics (nominally 0.5 mL) were taken from all test article-treated animals on Days 1, 12 (Week 2), 26 (Group 4 only), 57 (Week 9), 92 (Week 14), 180 (Week 26) and 267 (Week 39) of the dosing phase at the following time points: • 0 (predose), 1, 3, 7 and 24 hours postdose
An additional sample was taken at 72 hours postdose on Day 12 (i.e. Day 15) from all Group 4 animals.
Samples were taken from the femoral vein/artery. Each blood sample was mixed gently by hand then placed on crushed wet ice until centrifugation at 2300 g for 10 minutes at approximately 4° C. The resultant plasma was separated, split into two uniquely labelled clear polypropylene tubes and frozen at <−50° C. (nominally −80° C.). One sample was transported frozen on dry ice to the Principal Investigator for analysis, and the other was retained at Covance.

## Cc1cn2nc(-c3cc(=O)n4cc(N5CCNC6(CC6)C5)ccc4n3)cc(C)c2n1 [RO7034067, 7-(4,7-diazaspiro[2.5]octan-7-yl)-2-(2,8-dimethylimidazo[1,2-b]pyridazin-6-yl)pyrido[1,2-a]pyrimidin-4-one]
SMN protein [1]; C/C-allele mice, 10 mg/kg
  SMN levels in muscle compared with heterozygous mice: no different from those in heterozygous mice
SMN protein [1]; adult C/C-allele mice, 10 mg/kg PO daily, 10 days
  SMN protein levels in brain and muscle tissue, maximum effect: 2-3 fold
FMO3
  elimination pathway: FMO3 participates on the elimination path way
MADD gene transcripts
  gene expression analysis of MADD gene transcripts: splicing response
Aqueous solubility
  aqueous solubility: high aqueous solubility
retina
  individual AUC0-24h exposures without retina changes: up to 15,100 ng·h/mL
SMN protein [2]; SMNΔ7 mice, brain
  SMN protein in brain as share of protein levels in heterozygous mice: approximately 43%
SMN protein [2]; SMNΔ7 mice, muscle
  SMN protein in muscle as share of protein levels in heterozygous mice: ~55%
SMN protein [2]; neonatal SMNΔ7 mice, 1-3 mg/kg IP daily, 7 days
  SMN protein levels in brain and muscle tissue, maximum effect: 2-3 fold
SMN protein [2]; severe SMNΔ7 mouse model
  increase in SMN protein possible: more than 100%
[3]; any dose level, 39-week dosing phase
  gender differences for AUC(0-24h) or Cmax: no relevant gender differences
[3]; between 1.5 and 5 mg/kg/day on each evaluation day
  dose dependence of AUC(0-24h): roughly dose-proportional increase
[3]; female, Day 12, 7.5 mg/kg/day oral, read-out: AUC(0-24h), female (mean)
  AUC(0-t): 10200 ng·h/mL
[3]; female, Day 12, 7.5 mg/kg/day oral, read-out: Cmax, female (mean)
  Cmax: 1070 ng/mL
[3]; female, Day 267 (Week 39), 1.5 mg/kg/day oral, read-out: Cmax, female (mean)
  Cmax: 396 ng/mL
[3]; female, Day 267, 1.5 mg/kg/day oral, read-out: AUC(0-24h), female (mean)
  AUC(0-t): 2060 ng·h/mL
[3]; female, Day 267, 3 mg/kg/day oral, read-out: AUC(0-24h), female (mean)
  AUC(0-t): 4850 ng·h/mL
[3]; female, Day 267, 3 mg/kg/day oral, read-out: Cmax, female (mean)
  Cmax: 973 ng/mL
[3]; female, Day 267, 5 mg/kg/day oral (Group 4, 7.5/5), read-out: AUC(0-24h), female (mean)
  AUC(0-t): 6470 ng·h/mL
[3]; female, Day 267, 5 mg/kg/day oral (Group 4, 7.5/5), read-out: Cmax, female (mean)
  Cmax: 1160 ng/mL
[3]; male, Day 12, 7.5 mg/kg/day oral, read-out: AUC(0-24h), male (mean)
  AUC(0-t): 11200 ng·h/mL
[3]; male, Day 12, 7.5 mg/kg/day oral, read-out: Cmax, male (mean)
  Cmax: 1020 ng/mL
[3]; male, Day 267 (Week 39), 1.5 mg/kg/day oral, read-out: Cmax, male (mean)
  Cmax: 414 ng/mL
[3]; male, Day 267, 1.5 mg/kg/day oral, read-out: AUC(0-24h), male (mean)
  AUC(0-t): 1870 ng·h/mL
[3]; male, Day 267, 3 mg/kg/day oral, read-out: AUC(0-24h), male (mean)
  AUC(0-t): 4880 ng·h/mL
[3]; male, Day 267, 3 mg/kg/day oral, read-out: Cmax, male (mean)
  Cmax: 1000 ng/mL
[3]; male, Day 267, 5 mg/kg/day oral (Group 4, 7.5/5), read-out: AUC(0-24h), male (mean)
  AUC(0-t): 5880 ng·h/mL
[3]; male, Day 267, 5 mg/kg/day oral (Group 4, 7.5/5), read-out: Cmax, male (mean)
  Cmax: 701 ng/mL
